Patent US8962637B2, “Bicyclic compounds and their uses as dual c-SRC/JAK inhibitors” (Debiopharm S.A., priority 2010, dated 2015)

How the values were obtained:
[1] = system: pStat3; assay: In-Cell-Western blot assay for pStat3 (ICW) in A431 cells; type: cell-based; conditions: Homo sapiens, A-431, 2 hrs, read-out: pSTAT3 inhibition
Summary of the method: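 Serum-starved (overnight) A431 cells treated with compound for 2 hrs, then fixed, permeabilized and probed with phospho-Stat3 antibody plus europium-labelled secondary. Europium signal normalized to Hoechst for cell number; IC50 calculated from normalized values.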

[2] = molecular target: JAK2 (Homo sapiens (Human), UniProt O60674); assay: TR-FRET JAK2 kinase assay; type: biochemical; conditions: ATP 10 μM
Procedure: (§1) Compounds were screened in the TR-FRET assay for JAK2 and c-Src kinase inhibition. Ultra light poly GT (Perkin Elmer) was used as the substrate for JAK2 and c-Src with the ATP concentration of 10 μM and 50 μM, respectively. […] The dose-response curve fitting was done using GraphPad Prism software.

[3] = molecular target: JAK1 (Homo sapiens (Human), UniProt P23458); assay: JAK1 kinase inhibition; type: biochemical
[4] = system: Mda-Mb-231 cells; assay: Cell viability assay (XTT assay), Mda-Mb-231; type: cell-based; conditions: Homo sapiens, 72 hrs
Summary of the method: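 MDA-MB-231 cells seeded and dosed next day in triplicate, incubated 72 h. Medium replaced with XTT working solution for 2-5 h, absorbance read at 465 nm, and EC50 values derived from the readings.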

[5] = system: A431 cancer cell line; assay: Inhibition of cell growth in A431; type: cell-based; conditions: Homo sapiens, A-431
[6] = Volume distribution; conditions: in vivo
Excerpt: Table 8 provides some volume distribution values of the compounds of the present invention.

[7] = molecular target: c-Src (Homo sapiens (Human), UniProt P12931); assay: TR-FRET c-Src kinase assay; type: biochemical; conditions: ATP 50 μM
Procedure: as §1

[8] = system: A549 cells; assay: Cell viability assay (XTT assay), A549; type: cell-based; conditions: Homo sapiens, 72 hrs
Procedure: Next day compounds were added to cells and incubated for 72 hrs. Compound treatment was done in triplicates. After 72 hrs cell culture media was aspirated from the wells and XTT working solution was added and plates were incubated for 2-5 hrs. […] EC50 values were calculated using Graphpad Prism. Tumor cell lines used in the examples of the present invention were procured from ATCC. Description of the cell lines is included in the following table: […]

[9] = system: A431 tumor cells; assay: A431 xenograft model; type: in vivo, athymic nude mice; conditions: A431 Xenograft model, 100 MPK
Procedure: SC injection of 5×10^6 A431 tumor cells with Matrigel® on the left flank of 24 female athymic nude mice. Randomization of mice 14 days after tumor cell injection into 3 groups of 8 mice each with a mean tumor volume of 90±1 mm3.
(§2) Formulation: 20% HPC, 2% ethanol solution in PBS for the compound No. 45
• Normal saline for Gefitinib® Dosing route: Oral for the compound No. 45 and Gefitinib® Dose Volume: 10 mL/Kg body weight Dosing schedule: Once daily for 14 consecutive days (Q1Dx14) PK-PD experiment in A431 model: Tumors were allowed to grow to 250 mm^3 size. Compounds were dosed once and PBMCs and tumors were collected at Tmax for pStat3 estimation. Plasma was also collected to estimate drug concentration estimation. Efficacy experiment in A431 model: Dosage: • Group1. Vehicle control • Group2. Compound No. 45—150 MPK • Group3. […] Plasma collected for drug concentration estimation and whole blood was collected to isolate PBMCs to determine pStat3 inhibition by flow cytometry as PD readout. Tumors were snap frozen in liquid nitrogen and stored at −80° C. to estimate pStat3 by flow cytometry as PD readout Determination of Plasma Drug Concentration: […]

[10] = system: B16F10 tumor cells; assay: B16F10 metastasis model; type: in vivo, C57B16 mice; conditions: B16F10 model, 5 MPK
Procedure: IV injection of 0.1×10^6 B16F10 tumor cells in the tail vain of 60 male C57B16 mice. Randomization of mice one day after tumor cell injection into 4 groups of 15 mice. Out of 15, 6 mice were sacrificed on 14th day for counting metastatic foci on lungs. Rest 9 mice were dosed continuously till morbidity/mortality for recording survival.
as §2
Plasma collected for drug concentration estimation and whole blood was collected to isolate PBMCs to determine pStat3 inhibition by flow cytometry as PD readout.

[11] = system: pStat3; assay: Quantification of pStat3 in PBMCs by flow cytometry; type: in vivo, mice; conditions: B16F10 model, 5 MPK
Procedure: Phosphorylation of Stat3 was stimulated by addition of hIL6 (10 ug/mL) for 30 min at 37° C. Blood was fixed with formaldehyde (final 2% v/v) for 10 min at 37° C.
Buffy coat (PBMCs) was separated by aspirating translucent layer using pipetteman and washed twice with PBS-1×
Pre chilled PBMC's were permeabilized by adding ice cold Methanol, while vortexing gently (final volume 90% MeOH v/v) and incubated for 30 min on ice.
Permeabilized PBMCs were washed with PBS once. PBMCs re-suspended to 2×10^6 cells in 200 μL of incubation buffer for 10 min at room temperature (RT). Primary Ab was added (1:100 dilution) and incubated 45 min at RT. Washed as before (twice) and re-suspended in fluorochrome conjugated secondary Ab (1:500 dilution) and incubated at RT in dark for 30 min. Washed and re-suspended in […] PBS.
Measured pStat3 using FACS caliber machine (BD). Unstained PBMCs was used for cytometry settings. […] Histograms (cell number V/s FL1-H) were plotted. Percentage of cells that are phosphorylated by IL6 stimulation (M2 population), and inhibition of phosphorylation by inhibitor (decrease in M2 population) are calculated on histogram by marking peaks, M1 and M2.

Sequence of JAK2 (O60674 whole entry): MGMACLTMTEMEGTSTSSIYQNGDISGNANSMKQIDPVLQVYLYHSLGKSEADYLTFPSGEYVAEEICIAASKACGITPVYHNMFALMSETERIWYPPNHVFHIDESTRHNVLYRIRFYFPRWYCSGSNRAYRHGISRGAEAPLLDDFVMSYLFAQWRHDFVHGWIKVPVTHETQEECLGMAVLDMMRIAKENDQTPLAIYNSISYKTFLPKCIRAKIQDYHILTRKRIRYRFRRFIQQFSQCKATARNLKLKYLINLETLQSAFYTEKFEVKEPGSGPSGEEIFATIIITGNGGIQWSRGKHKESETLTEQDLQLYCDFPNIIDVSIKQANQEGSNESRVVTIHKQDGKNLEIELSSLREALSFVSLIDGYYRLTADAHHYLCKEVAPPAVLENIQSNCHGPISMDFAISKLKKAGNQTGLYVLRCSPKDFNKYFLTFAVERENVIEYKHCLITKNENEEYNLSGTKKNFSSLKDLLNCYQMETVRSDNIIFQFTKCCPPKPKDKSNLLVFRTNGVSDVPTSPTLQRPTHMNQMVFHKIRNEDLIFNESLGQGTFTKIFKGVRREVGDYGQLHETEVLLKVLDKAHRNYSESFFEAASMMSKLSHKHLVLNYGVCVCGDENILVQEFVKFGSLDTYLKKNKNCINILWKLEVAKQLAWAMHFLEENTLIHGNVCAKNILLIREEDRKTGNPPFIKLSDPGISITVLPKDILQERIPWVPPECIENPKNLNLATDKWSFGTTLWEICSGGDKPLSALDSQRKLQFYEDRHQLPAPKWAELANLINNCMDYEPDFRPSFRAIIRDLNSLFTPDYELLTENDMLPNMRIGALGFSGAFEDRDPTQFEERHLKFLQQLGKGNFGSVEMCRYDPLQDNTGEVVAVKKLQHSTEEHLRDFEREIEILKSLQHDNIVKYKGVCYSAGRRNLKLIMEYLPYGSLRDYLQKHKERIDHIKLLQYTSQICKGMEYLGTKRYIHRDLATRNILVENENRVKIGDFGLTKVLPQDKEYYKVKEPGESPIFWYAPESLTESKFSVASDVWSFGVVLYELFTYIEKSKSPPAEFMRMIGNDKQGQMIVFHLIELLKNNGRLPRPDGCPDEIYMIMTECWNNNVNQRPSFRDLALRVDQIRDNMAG
Sequence of c-Src (P12931 whole entry, looked up): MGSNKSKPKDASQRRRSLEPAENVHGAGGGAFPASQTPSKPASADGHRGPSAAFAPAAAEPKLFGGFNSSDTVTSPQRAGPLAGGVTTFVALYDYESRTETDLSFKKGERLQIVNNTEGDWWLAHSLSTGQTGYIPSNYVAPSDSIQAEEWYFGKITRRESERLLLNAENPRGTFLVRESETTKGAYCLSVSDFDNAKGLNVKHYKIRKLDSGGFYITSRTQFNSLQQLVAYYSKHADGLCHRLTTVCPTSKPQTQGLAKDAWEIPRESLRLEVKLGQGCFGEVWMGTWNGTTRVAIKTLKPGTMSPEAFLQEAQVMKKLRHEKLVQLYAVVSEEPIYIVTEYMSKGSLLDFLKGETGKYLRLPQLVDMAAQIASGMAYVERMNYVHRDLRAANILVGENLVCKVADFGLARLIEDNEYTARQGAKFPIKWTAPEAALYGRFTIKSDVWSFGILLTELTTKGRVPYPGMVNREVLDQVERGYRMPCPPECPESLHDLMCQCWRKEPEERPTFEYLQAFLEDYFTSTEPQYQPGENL
Sequence of JAK1 (P23458 whole entry): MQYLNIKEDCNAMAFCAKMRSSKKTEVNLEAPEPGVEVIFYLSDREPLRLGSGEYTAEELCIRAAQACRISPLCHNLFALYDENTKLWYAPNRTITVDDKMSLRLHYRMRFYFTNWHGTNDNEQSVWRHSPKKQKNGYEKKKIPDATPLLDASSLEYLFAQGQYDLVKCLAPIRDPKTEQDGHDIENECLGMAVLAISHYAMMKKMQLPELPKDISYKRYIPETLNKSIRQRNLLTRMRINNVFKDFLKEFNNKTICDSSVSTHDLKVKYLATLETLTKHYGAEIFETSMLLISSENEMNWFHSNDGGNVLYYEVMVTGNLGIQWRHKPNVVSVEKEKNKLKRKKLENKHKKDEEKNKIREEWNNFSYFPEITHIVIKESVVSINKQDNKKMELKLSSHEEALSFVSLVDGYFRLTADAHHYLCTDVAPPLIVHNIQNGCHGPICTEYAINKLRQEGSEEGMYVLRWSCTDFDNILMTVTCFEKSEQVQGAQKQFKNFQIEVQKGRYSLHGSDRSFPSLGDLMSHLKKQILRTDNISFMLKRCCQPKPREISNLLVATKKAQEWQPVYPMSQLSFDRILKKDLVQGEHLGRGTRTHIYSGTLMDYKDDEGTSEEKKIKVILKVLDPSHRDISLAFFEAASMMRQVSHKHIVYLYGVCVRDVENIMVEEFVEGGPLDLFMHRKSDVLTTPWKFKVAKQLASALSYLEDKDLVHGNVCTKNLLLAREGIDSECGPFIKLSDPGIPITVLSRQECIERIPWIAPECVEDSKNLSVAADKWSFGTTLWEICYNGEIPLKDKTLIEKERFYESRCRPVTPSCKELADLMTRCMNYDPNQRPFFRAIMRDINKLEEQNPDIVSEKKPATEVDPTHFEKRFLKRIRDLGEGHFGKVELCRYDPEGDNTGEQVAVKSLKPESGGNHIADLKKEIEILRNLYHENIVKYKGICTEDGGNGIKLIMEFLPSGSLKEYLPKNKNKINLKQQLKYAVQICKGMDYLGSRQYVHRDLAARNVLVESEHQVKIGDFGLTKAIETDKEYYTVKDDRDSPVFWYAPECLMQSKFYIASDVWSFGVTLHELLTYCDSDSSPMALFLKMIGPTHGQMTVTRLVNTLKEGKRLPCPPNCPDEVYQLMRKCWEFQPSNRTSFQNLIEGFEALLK

IC50 [1] [nM]	IC50 [2] [nM]	inhibition at 0.1 µM ([3]; read-out: JAK1 % inhibition at 100 nM) [%]	inhibition at 1 µM ([3]; read-out: JAK1 % inhibition at 1 μM) [%]	EC50 [4] [nM]	EC50 [5] [nM]	Vd [6] [L/kg]	IC50 [7] [nM]	EC50 [8] [nM]	inhibition at 0.1 µM ([2]; read-out: JAK2 % inhibition at 100 nM, 100 nM) [%]	inhibition at 1 µM ([2]; read-out: JAK2 % inhibition at 1 μM, 1 μM) [%]	inhibition at 0.1 µM ([7]; read-out: c-SRC % inhibition at 100 nM, 100 nM) [%]	inhibition at 1 µM ([7]; read-out: c-SRC % inhibition at 1 μM, 1 μM) [%]	Structure (SMILES)	% TGI [9] [%]	Metastasis Inhibition [10] [%]	PBMCs % pStat3 inhibition [11] [%]
150	3	85	89	44	92	7.7	2	10					Cc1ccc(NC(=O)c2cccc(C(F)(F)F)c2)cc1N1CCc2nc(Nc3ccc(C(=O)N4CCN(C)CC4)cc3)ncc2C1 [Compound 17, N-(4-Methyl-3-{2-[4-(4-methyl-piperazine-1-carbonyl)-phenylamino]-7,8-dihydro-5H-pyrido[4,3-d]pyrimidin-6-yl}-phenyl)-3-trifluoromethyl-benzamide]			
350	6			1380	600	3.35	27	1140	92	97	73	81	CN1CCN(c2ccc(Nc3ncc4c(n3)CCN(c3cc(NC(=O)c5cccc(C(F)(F)F)c5)ccc3Cl)C4=O)cc2)CC1 [Compound 162, N-(4-Chloro-3-{2-[4-(4-methyl-piperazin-1-yl)-phenylamino]-5-oxo-7,8-dihydro-5H-pyrido[4,3-d]pyrimidin-6-yl}-phenyl)-3-trifluoromethyl-benzamide]			
													COc1cc2ncnc(Nc3ccc(F)c(Cl)c3)c2cc1OCCCN1CCOCC1 [Gefitinib, reference compound]	94.25		
													CC(=O)O[C@H]1C(=O)[C@@]2(C)[C@H]([C@H](OC(=O)c3ccccc3)[C@]3(O)C[C@H](OC(=O)[C@H](O)[C@@H](NC(=O)c4ccccc4)c4ccccc4)C(C)=C1C3(C)C)[C@]1(OC(C)=O)CO[C@@H]1C[C@@H]2O [Taxol, paclitaxel, reference compound]		32	25
